Where “and” joins values, the source holds several entries; their conditions need not be identical. Identical values can stand only once. Counter-ions that a name gives are not always drawn. Values belong to the compound of their own block, whether it stands above or below them.
Legend:
Format in all cases: in vivo, human
[1] = Single ascending dose study (Part 1): safety and tolerability, adverse events
Procedure: (§1) A randomized, double-blind, placebo-controlled, sequential, single ascending dose study was conducted in healthy subjects to investigate the safety, tolerability and pharmacokinetics of capsules containing delayed release (DR) mini-tablets of Compound 1 from Example 2.1 (“Compound 1 DR capsules”). Up to 7 cohorts were included with 8 subjects in each cohort. In each cohort, 6 subjects received Compound 1 DR capsules and 2 subjects were treated with placebo in fasted condition. Compound 1 doses investigated were 49 mg (Cohort 1), 105 mg (Cohort 2), 210 mg (Cohort 3), 420 mg (Cohort 4), 630 mg (Cohort 5), 840 mg (Cohort 6), and 980 mg (Cohort 7) (all weights being mg of prodrug).

[2] = Phase I 2-period cross-over study (Part 2): plasma MMF pharmacokinetics; details: 420 mg Compound 1 DR versus 240 mg DMF
Procedure: (§2) (The DMF oral dosage form used in this study was […]®, (Biogen Idec, Inc Cambridge, MA, USA)). A total of 16 subjects were enrolled and randomized to a treatment sequence.
Each dosing period was separated by a wash-out period of 7 days.
(§3) Blood samples were collected from all subjects prior to dosing and at 0.25, 0.50, 1, 1.50, 2, 2.50, 3, 4, 6, 8, 10, 12, and 24 hours after dosing. Plasma obtained from blood samples were analyzed for Compound 1, MMF and another metabolite using validated LC-MS/MS method. The plasma concentration-time profiles were analyzed via Non-Compartmental analysis (NCA) using Phoenix WinNonLin, version 6.3.

[3] = Phase I 2-period cross-over study (Part 2): safety and tolerability, adverse events; details: DMF 240 mg or Compound 1 DR 420 mg
Text: as §2
Each dosing period was separated by a wash-out period of 7 days. […]

[4] = Single ascending dose study (Part 1): plasma MMF pharmacokinetics; details: oral dosing, 49 to 980 mg
Procedure: as §1, §3

PK variability (% CV) compared to DMF treatment [2]: less PK variability
PK variability (% CV) compared to DMF treatment ([2]; listed as 2-(2,5-dioxopyrrolidin-1-yl)ethyl methyl fumarate): less variability
conversion to metabolite MMF in plasma [4]: rapidly converted
SMILES: COC(=O)/C=C/C(=O)OCCN1C(=O)CCC1=O [Compound 1, 2-(2,5-dioxopyrrolidin-1-yl)ethyl methyl fumarate]
Subjects with Abdominal discomfort ([1]; 49 mg, N = 6): 0 n (%)
Subjects with Abdominal pain ([1]; 49 mg, N = 6): 0 n (%)
Subjects with Diarrhoea ([1]; 49 mg, N = 6): 0 n (%)
Subjects with Flatulence ([1]; 49 mg, N = 6): 0 n (%)
Subjects with Flushing ([1]; 49 mg, N = 6): 1 (16.7) n (%)
Subjects with Frequent bowel movements ([1]; 49 mg, N = 6): 1 (16.7) n (%)
Subjects with Gastrointestinal disorders (SOC) ([1]; 49 mg, N = 6): 1 (16.7) n (%)
Subjects with Nausea ([1]; 49 mg, N = 6): 0 n (%)
Subjects with Vascular disorders (SOC) ([1]; 49 mg, N = 6): 1 (16.7) n (%)
Subjects with Abdominal discomfort ([1]; 105 mg, N = 6): 0 n (%)
Subjects with Abdominal pain ([1]; 105 mg, N = 6): 0 n (%)
Subjects with Diarrhoea ([1]; 105 mg, N = 6): 0 n (%)
Subjects with Flatulence ([1]; 105 mg, N = 6): 0 n (%)
Subjects with Flushing ([1]; 105 mg, N = 6): 0 n (%)
Subjects with Frequent bowel movements ([1]; 105 mg, N = 6): 0 n (%)
Subjects with Gastrointestinal disorders (SOC) ([1]; 105 mg, N = 6): 0 n (%)
Subjects with Nausea ([1]; 105 mg, N = 6): 0 n (%)
Subjects with Vascular disorders (SOC) ([1]; 105 mg, N = 6): 0 n (%)
Subjects with Abdominal discomfort ([1]; 210 mg, N = 6): 1 (16.7) n (%)
Subjects with Abdominal pain ([1]; 210 mg, N = 6): 0 n (%)
Subjects with Diarrhoea ([1]; 210 mg, N = 6): 0 n (%)
Subjects with Flatulence ([1]; 210 mg, N = 6): 0 n (%)
Subjects with Flushing ([1]; 210 mg, N = 6): 2 (33.3) n (%)
Subjects with Frequent bowel movements ([1]; 210 mg, N = 6): 0 n (%)
Subjects with Gastrointestinal disorders (SOC) ([1]; 210 mg, N = 6): 1 (16.7) n (%)
Subjects with Nausea ([1]; 210 mg, N = 6): 0 n (%)
Subjects with Vascular disorders (SOC) ([1]; 210 mg, N = 6): 2 (33.3) n (%)
Subjects with Abdominal discomfort ([1]; 420 mg, N = 6): 0 n (%)
Subjects with Abdominal pain ([1]; 420 mg, N = 6): 0 n (%)
Subjects with Diarrhoea ([1]; 420 mg, N = 6): 0 n (%)
Subjects with Flatulence ([1]; 420 mg, N = 6): 0 n (%)
Subjects with Flushing ([1]; 420 mg, N = 6): 4 (66.7) n (%)
Subjects with Frequent bowel movements ([1]; 420 mg, N = 6): 0 n (%)
Subjects with Gastrointestinal disorders (SOC) ([1]; 420 mg, N = 6): 0 n (%)
Subjects with Nausea ([1]; 420 mg, N = 6): 0 n (%)
Subjects with Vascular disorders (SOC) ([1]; 420 mg, N = 6): 4 (66.7) n (%)
Subjects with Abdominal discomfort ([1]; 630 mg, N = 6): 0 n (%)
Subjects with Abdominal pain ([1]; 630 mg, N = 6): 0 n (%)
Subjects with Diarrhoea ([1]; 630 mg, N = 6): 1 n (%)
Subjects with Flatulence ([1]; 630 mg, N = 6): 0 n (%)
Subjects with Flushing ([1]; 630 mg, N = 6): 6 n (%)
Subjects with Frequent bowel movements ([1]; 630 mg, N = 6): 0 n (%)
Subjects with Gastrointestinal disorders (SOC) ([1]; 630 mg, N = 6): 1 n (%)
Subjects with Nausea ([1]; 630 mg, N = 6): 0 n (%)
Subjects with Vascular disorders (SOC) ([1]; 630 mg, N = 6): 6 n (%)
Subjects with Abdominal discomfort ([1]; 840 mg, N = 6): 0 n (%)
Subjects with Abdominal pain ([1]; 840 mg, N = 6): 0 n (%)
Subjects with Diarrhoea ([1]; 840 mg, N = 6): 1 (16.7) n (%)
Subjects with Flatulence ([1]; 840 mg, N = 6): 2 (33.3) n (%)
Subjects with Flushing ([1]; 840 mg, N = 6): 5 (83.3) n (%)
Subjects with Frequent bowel movements ([1]; 840 mg, N = 6): 0 n (%)
Subjects with Gastrointestinal disorders (SOC) ([1]; 840 mg, N = 6): 2 (33.3) n (%)
Subjects with Nausea ([1]; 840 mg, N = 6): 0 n (%)
Subjects with Vascular disorders (SOC) ([1]; 840 mg, N = 6): 5 (83.3) n (%)
Subjects with Abdominal discomfort ([1]; 980 mg, N = 6): 1 n (%)
Subjects with Abdominal pain ([1]; 980 mg, N = 6): 1 n (%)
Subjects with Diarrhoea ([1]; 980 mg, N = 6): 2 n (%)
Subjects with Flatulence ([1]; 980 mg, N = 6): 1 n (%)
Subjects with Flushing ([1]; 980 mg, N = 6): 6 n (%)
Subjects with Frequent bowel movements ([1]; 980 mg, N = 6): 0 n (%)
Subjects with Gastrointestinal disorders (SOC) ([1]; 980 mg, N = 6): 4 n (%)
Subjects with Nausea ([1]; 980 mg, N = 6): 2 n (%)
Subjects with Vascular disorders (SOC) ([1]; 980 mg, N = 6): 6 n (%)
tolerability during the trial ([1]; 49 to 980 mg single doses): well tolerated
Subjects with Flushing ([1]; dose levels ≥420 mg): > 50%
Subjects with Flushing ([3]; N = 12): 8 (66.7%) n (%)
Subjects with Gastrointestinal disorders (SOC) ([3]; N = 12): 1 (8.3%) n (%)

SMILES: COC(=O)/C=C/C(=O)OC [DMF, Dimethyl fumarate]
mean onset of flushing [3]: 1.2 h
Subjects with Constipation ([3]; N = 12): 0 n (%)
Subjects with Diarrhoea ([3]; N = 12): 1 (8.3%) n (%) and 1 n (%)
Subjects with Eructation ([3]; N = 12): 1 n (%)
Subjects with Flatulence ([3]; N = 12): 1 n (%)
Subjects with Flushing ([3]; N = 12): 8 (66.7%) n (%) and 8 n (%)
Subjects with Gastrointestinal disorders (SOC) ([3]; N = 12): 5 (41.7%) n (%) and 5 n (%)
Subjects with Nausea ([3]; N = 12): 3 (25%) n (%) and 3 n (%)
Subjects with Retching ([3]; N = 12): 1 (8.3%) n (%) and 1 n (%)
Subjects with Vascular disorders (SOC) ([3]; N = 12): 8 n (%)
